Laboratory results: patent US11969423B2, “Compounds” (GLAXOSMITHKLINE INTELLECTUAL PROPERTY DEVELOPMENT LIMITED, priority 2017, dated 2024)

Tested on: M. tuberculosis W4-E1-GFP (Mutant)
Type: cell-based, Mycobacterium tuberculosis
Conditions: read-out: EC50_Mutant

Structure (SMILES) | EC50 [nM]
O=C(CCC(F)(F)F)N1CCC(c2cnccn2)CC1 [Example 1, 4,4,4-trifluoro-1-(4-pyrazin-2-yl-1-piperidyl)butan-1-one] | 1000 to 10000
O=C(CCC(F)(F)F)N1CCC(F)(c2cccnc2)CC1 [Example 2, 4,4,4-trifluoro-1-[4-fluoro-4-(3-pyridyl)-1-piperidyl]butan-1-one] | 500 to 1000
O=C(CCC(F)(F)F)N1CCC(c2cncc(F)c2)CC1 [Example 3, 4,4,4-trifluoro-1-[4-(5-fluoro-3-pyridyl)-1-piperidyl]butan-1-one] | 1000 to 10000
O=C(CCC(F)(F)F)N1CCC(c2ccc(F)nc2)CC1 [Example 4, 4,4,4-trifluoro-1-[4-(6-fluoro-3-pyridyl)-1-piperidyl]butan-1-one] | 1000 to 10000
O=C(CCC(F)(F)F)N1CCC(c2ccc(C(F)(F)F)nc2)CC1 [Example 5, 4,4,4-trifluoro-1-[4-[6-(trifluoromethyl)-3-pyridyl]-1-piperidyl]butan-1-one] | 1000 to 10000
O=C(CCC(F)(F)F)N1CCC(c2cc(C(F)(F)F)ccn2)CC1 [Example 6, 4,4,4-trifluoro-1-[4-[4-(trifluoromethyl)-2-pyridyl]-1-piperidyl]butan-1-one] | 50 to 250
O=C(CCC(F)(F)F)N1CCC(c2cncc(C(F)(F)F)c2)CC1 [Example 7, 4,4,4-trifluoro-1-[4-[5-(trifluoromethyl)-3-pyridyl]-1-piperidyl]butan-1-one] | 50 to 250
O=C(CCC(F)(F)F)N1CCC(c2cccc(C(F)(F)F)n2)CC1 [Example 8, 4,4,4-trifluoro-1-[4-[6-(trifluoromethyl)-2-pyridyl]-1-piperidyl]butan-1-one] | 1000 to 10000
O=C(CCC(F)(F)F)N1CCC(c2cccc(F)n2)CC1 [Example 9, 4,4,4-trifluoro-1-[4-(6-fluoro-2-pyridyl)-1-piperidyl]butan-1-one] | 250 to 500
COc1ccc(C2CCN(C(=O)CCC(F)(F)F)CC2)cn1 [Example 10, 4,4,4-trifluoro-1-[4-(6-methoxy-3-pyridyl)-1-piperidyl]butan-1-one] | 50 to 250
O=C(CCC(F)(F)F)N1CCC(c2cccnc2C(F)(F)F)CC1 [Example 11, 4,4,4-trifluoro-1-[4-[2-(trifluoromethyl)-3-pyridyl]-1-piperidyl]butan-1-one] | 1000 to 10000
COc1cncc(C2CCN(C(=O)CCC(F)(F)F)CC2)c1 [Example 12, 4,4,4-trifluoro-1-[4-(5-methoxy-3-pyridyl)-1-piperidyl]butan-1-one] | 500 to 1000
O=C(CCC(F)(F)F)N1CCC(c2ccc(F)nc2F)CC1 [Example 14, 1-[4-(2,6-difluoro-3-pyridyl)-1-piperidyl]-4,4,4-trifluoro-butan-1-one] | 50 to 250
O=C(CCC(F)(F)F)N1CCC(c2nccc(C(F)(F)F)n2)CC1 [Example 15] | 1000 to 10000
O=C(CCC(F)(F)F)N1CCC(c2cncnc2)CC1 [Example 16] | 1000 to 10000
O=C(CCC(F)(F)F)N1CCC(c2ccc(F)cn2)CC1 [Example 17, 4,4,4-trifluoro-1-[4-(5-fluoro-2-pyridyl)-1-piperidyl]butan-1-one] | 1000 to 10000
O=C(CCC(F)(F)F)N1CCC(c2ccnc(C(F)(F)F)c2)CC1 [Example 18, 4,4,4-trifluoro-1-(4-(2-(trifluoromethyl)pyridin-4-yl)piperidin-1-yl)butan-1-one] | < 50
O=C(CCC(F)(F)F)N1CCC(c2ccnc(F)c2)CC1 [Example 20, 4,4,4-trifluoro-1-(4-(2-fluoropyridin-4-yl)piperidin-1-yl)butan-1-one] | 50 to 250
O=C(CCC(F)(F)F)N1CCC(c2cnc(C(F)(F)F)cn2)CC1 [Example 21, 4,4,4-trifluoro-1-(4-(5-(trifluoromethyl)pyrazin-2-yl)piperidin-1-yl)butan-1-one] | 1000 to 10000
Cc1cc(C2CCN(C(=O)CCC(F)(F)F)CC2)ccn1 [Example 22, 4,4,4-trifluoro-1-(4-(2-methylpyridin-4-yl)piperidin-1-yl)butan-1-one] | 50 to 250

Structure (SMILES) | EC50 [nM]
O=C(CCC(F)(F)F)N1CCC(c2cnc(F)c(F)c2)CC1 [Example 23, 1-(4-(5,6-difluoropyridin-3-yl)piperidin-1-yl)-4,4,4-trifluorobutan-1-one] | 50 to 250
O=C(CCC(F)(F)F)N1CCC(c2cncc(C(F)(F)F)n2)CC1 [Example 24, 4,4,4-trifluoro-1-(4-(6-(trifluoromethyl)pyrazin-2-yl)piperidin-1-yl)butan-1-one] | 500 to 1000
O=C(CCC(F)(F)F)N1CCC(c2ccnc(Cl)c2)CC1 [Example 25, 1-(4-(2-chloropyridin-4-yl)piperidin-1-yl)-4,4,4-trifluorobutan-1-one] | 50 to 250
O=C(CCC(F)(F)F)N1CCC(c2ccncc2F)CC1 [Example 26, 4,4,4-trifluoro-1-(4-(3-fluoropyridin-4-yl)piperidin-1-yl)butan-1-one] | 500 to 1000
O=C(CCC(F)(F)F)N1CCC(c2cccc(Cl)n2)CC1 [Example 27, 1-(4-(6-chloropyridin-2-yl)piperidin-1-yl)-4,4,4-trifluorobutan-1-one] | 50 to 250
O=C(CCC(F)(F)F)N1CCC(c2ncccn2)CC1 [Example 28, 4,4,4-trifluoro-1-[4-(pyrimidin-2-yl)piperidin-1-yl]butan-1-one] | 1000 to 10000
O=C(CCC(F)(F)F)N1CCC(F)(c2cncc(Cl)c2)CC1 [Example 29, 1-(4-(5-chloropyridin-3-yl)-4-fluoropiperidin-1-yl)-4,4,4-trifluorobutan-1-one] | < 50
O=C(CCC(F)(F)F)N1CCC(c2cncc(Cl)c2)CC1 [Example 30, 1-(4-(5-chloropyridin-3-yl)piperidin-1-yl)-4,4,4-trifluorobutan-1-one] | 50 to 250
O=C(CCCC(F)(F)F)N1CCC(c2cncc(Cl)c2)CC1 [Example 31, 1-(4-(5-chloropyridin-3-yl)piperidin-1-yl)-5,5,5-trifluoropentan-1-one] | 250 to 500
O=C(CCC(F)(F)F)N1CCC(c2cncc(Cl)n2)CC1 [Example 32, 1-(4-(6-chloropyrazin-2-yl)piperidin-1-yl)-4,4,4-trifluorobutan-1-one] | 50 to 250
O=C(CCC(F)(F)F)N1CCC(F)(c2ccccn2)CC1 [Example 33, 4,4,4-trifluoro-1-(4-fluoro-4-(pyridin-2-yl)piperidin-1-yl)butan-1-one] | 50 to 250
O=C(CCC(F)(F)F)N1CCC(F)(c2cncc(C(F)(F)F)c2)CC1 [Example 34, 4,4,4-trifluoro-1-(4-fluoro-4-(5-(trifluoromethyl)pyridin-3-yl)piperidin-1-yl)butan-1-one] | < 50
O=C(CCC(F)(F)F)N1CCC(F)(c2ccnc(C(F)(F)F)c2)CC1 [Example 35, 4,4,4-trifluoro-1-(4-fluoro-4-(2-(trifluoromethyl)pyridin-4-yl)piperidin-1-yl)butan-1-one] | < 50
O=C(CCC(F)(F)F)N1CCC(F)(c2cncc(Cl)n2)CC1 [Example 36, 1-(4-(6-chloropyrazin-2-yl)-4-fluoropiperidin-1-yl)-4,4,4-trifluorobutan-1-one] | 250 to 500
O=C(CCC(F)(F)F)N1CCC(F)(c2ccnc(F)c2)CC1 [Example 37, 4,4,4-trifluoro-1-(4-fluoro-4-(2-fluoropyridin-4-yl)piperidin-1-yl)butan-1-one] | < 50
O=C(CCC(F)(F)F)N1CCC(c2cncc(Cl)c2)C1 (stereo not drawn) [Example 38, 1-(3-(5-chloropyridin-3-yl)pyrrolidin-1-yl)-4,4,4-trifluorobutan-1-one] | < 50
O=C(CCC(F)(F)F)N1CCC(F)(c2cc(C(F)(F)F)ccn2)CC1 [Example 39, 4,4,4-trifluoro-1-[4-fluoro-4-[4-(trifluoromethyl)-2-pyridyl]-1-piperidyl]butan-1-one] | 50 to 250
O=C(CCC(F)(F)F)N1CCC(F)(c2ccc(F)nc2)CC1 [Example 40] | 50 to 250
O=C(CCC(F)(F)F)N1CCC(F)(c2ccnc(Cl)c2)CC1 [Example 41] | < 50
